From patent publication US9873696B2, “Neprilysin inhibitors” (THERAVANCE BIOPHARMA R&D IP, LLC, priority 2010, dated 2018)

biological target: T1, human NEP (Homo sapiens, UniProt P08473); experiment: In vitro enzyme inhibition assay at human NEP (Assay 1); assay type: biochemical; conditions: recombinant enzyme, fluorogenic peptide substrate, 37° C.
T1 construct: purchased R&D Systems, Minneapolis, Minn; 1182-ZN
Method: In Vitro Assays for the Quantitation of Inhibitor Potencies (IC50) at Human and Rat NEP, and Human ACE
The inhibitory activities of compounds at human and rat neprilysin (EC 3.4.24.11; NEP) and human angiotensin converting enzyme (ACE) were determined using in vitro assays as described below.
Recombinant human NEP and recombinant human ACE were obtained commercially (R&D Systems, Minneapolis, Minn., catalog numbers 1182-ZN and 929-ZN, respectively). The fluorogenic peptide substrate Mca-D-Arg-Arg-Leu-Dap-(Dnp)-OH (Medeiros et al. (1997) Braz. J. Med. Biol. Res. 30:1157-62; Anaspec, San Jose, Calif.) and Abz-Phe-Arg-Lys(Dnp)-Pro-OH (Araujo et al. (2000) Biochemistry 39:8519-8525; Bachem, Torrance, Calif.) were used in the NEP and ACE assays respectively.
The assays were performed in 384-well white opaque plates at 37° C. using the fluorogenic peptide substrates at a concentration of 10 μM in Assay Buffer (NEP: 50 mM HEPES, pH 7.5, 100 mM NaCl, 0.01% polyethylene glycol sorbitan monolaurate (Tween-20), 10 μM ZnSO4; ACE: 50 mM HEPES, pH 7.5, 100 mM NaCl, 0.01% Tween-20, 1 μM ZnSO4).
Test compounds were assayed over the range of concentrations from […] to 20 μM. Test compounds were added to the enzymes and incubated for 30 minute at 37° C. prior to initiating the reaction by the addition of substrate. Reactions were terminated after 20 minutes of incubation at 37° C. by the addition of glacial acetic acid to a final concentration of 3.6% (v/v).
Plates were read on a fluorometer with excitation and emission wavelengths set to 320 nm and 405 nm, respectively. Inhibition constants were obtained by nonlinear regression of the data using the equation (GraphPad Software, Inc., San Diego, Calif.): v=v0/[1+(I/K′)] where v is the reaction rate, v0 is the uninhibited reaction rate, I is the inhibitor concentration and K′ is the apparent inhibition constant.
Compounds of the invention were tested in this assay and found to have pKi values at human NEP as follows.

T1 sequence (P08473 whole entry): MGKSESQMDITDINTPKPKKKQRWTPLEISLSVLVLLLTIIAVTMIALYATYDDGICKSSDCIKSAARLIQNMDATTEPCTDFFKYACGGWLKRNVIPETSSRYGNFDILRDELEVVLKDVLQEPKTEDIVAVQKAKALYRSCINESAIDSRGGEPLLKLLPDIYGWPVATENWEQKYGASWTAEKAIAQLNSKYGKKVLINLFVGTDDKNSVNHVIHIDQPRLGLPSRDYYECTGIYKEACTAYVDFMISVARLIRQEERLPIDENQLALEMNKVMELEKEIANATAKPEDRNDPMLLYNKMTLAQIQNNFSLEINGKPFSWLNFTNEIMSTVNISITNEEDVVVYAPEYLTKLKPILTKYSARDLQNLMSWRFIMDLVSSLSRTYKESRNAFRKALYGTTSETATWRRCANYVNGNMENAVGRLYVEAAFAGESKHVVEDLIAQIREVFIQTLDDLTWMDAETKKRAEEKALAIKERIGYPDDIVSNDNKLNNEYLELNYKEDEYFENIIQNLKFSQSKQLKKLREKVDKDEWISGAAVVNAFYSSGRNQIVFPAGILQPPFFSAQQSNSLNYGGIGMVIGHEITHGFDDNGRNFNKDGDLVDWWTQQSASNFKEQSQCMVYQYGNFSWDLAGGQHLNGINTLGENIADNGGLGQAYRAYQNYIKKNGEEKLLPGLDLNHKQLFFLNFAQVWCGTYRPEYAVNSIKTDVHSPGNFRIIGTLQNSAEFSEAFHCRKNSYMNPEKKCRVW

First: O=C(O)c1cc(C(=O)NN(Cc2ccc(-c3ccccc3)cc2)C[C@@H](O)C(=O)O)[nH]n1 [Example 1, 5-[N′-Biphenyl-4-ylmethyl-N′-((R)-2-carboxy-2-hydroxyethyl)hydrazinocarbonl]-1H-pyrazole-3-carboxylic Acid]
Second: O=C(O)c1cc(C(=O)NN(Cc2ccc(-c3ccccc3)cc2)C[C@H](O)C(=O)O)[nH]n1 [Example 2-1, 5-[N′-Biphenyl-4-ylmethyl-N′-((S)-2-carboxy-2-hydroxyethyl)-hydrazinocarbonyl]-1H-pyrazole-3-carboxylic acid]
The Ki of the first is lower: at most 1 nM for the first, 1.26 to 10 nM for the second.

`O=C(NCCO)c1cc(C(=O)NN(Cc2ccc(-c3ccccc3)cc2)C[C@@H](O)C(=O)O)[nH]n1` [Example 2-2, (R)-3-{N-Biphenyl-4-ylmethyl-N′-[5-(2-hydroxyethylcarbamoyl)-2H-pyrazole-3-carbonyl]hydrazino}-2-hydroxypropionic acid] and `NS(=O)(=O)CCNC(=O)c1cc(C(=O)NN(Cc2ccc(-c3ccccc3)cc2)C[C@@H](O)C(=O)O)[nH]n1` [Example 2-3, (R)-3-{N-Biphenyl-4-ylmethyl-N′-[5-(2-sulfamoylethylcarbamoyl)-2H-pyrazole-3-carbonyl]hydrazino}-2-hydroxypropionic acid] fall in the same range of Ki: 1.26 to 10 nM for the first, 1.26 to 10 nM for the second.

First: O=C(NC1CC1)c1cc(C(=O)NN(Cc2ccc(-c3ccccc3)cc2)C[C@@H](O)C(=O)O)[nH]n1 [Example 2-4, (R)-3-[N-Biphenyl-4-ylmethyl-N′-(5-cyclopropylcarbamoyl-2H-pyrazole-3-carbonyl)-hydrazino]-2-hydroxypropionic acid]
Second: O=C(NN(Cc1ccc(-c2ccccc2)cc1)C[C@@H](O)C(=O)O)c1cc(C(=O)N2CCC2)n[nH]1 [Example 2-8, (R)-3-{N′-[5-(Azetidine-1-carbonyl)-2H-pyrazole-3-carbonyl]-N-biphenyl-4-ylmethylhydrazino}-2-hydroxypropionic acid]
The Ki of the first is higher: 12.6 to 100 nM for the first, 1.26 to 10 nM for the second. The second binds more tightly here.

Compared with `COCCN(C)C(=O)c1cc(C(=O)NN(Cc2ccc(-c3ccccc3)cc2)C[C@@H](O)C(=O)O)[nH]n1` [Example 2-5, (R)-3-(N-Biphenyl-4-ylmethyl-N′-{5-[(2-methoxyethyl)methylcarbamoyl]-2H-pyrazole-3-carbonyl}hydrazino)-2-hydroxypropionic acid], `CN(C)C(=O)c1cc(C(=O)NN(Cc2ccc(-c3ccccc3)cc2)C[C@@H](O)C(=O)O)[nH]n1` [Example 2-6, (R)-3-[N-Biphenyl-4-ylmethyl-N′-(5-dimethylcarbamoyl-2H-pyrazole-3-carbonyl)-hydrazino]-2-hydroxypropionic acid] is lower in Ki: 12.6 to 100 nM for the first, 1.26 to 10 nM for the second. The second binds more tightly here.

First: CC(C)CN(C)C(=O)c1cc(C(=O)NN(Cc2ccc(-c3ccccc3)cc2)C[C@@H](O)C(=O)O)[nH]n1 [Example 2-7, (R)-3-{N-Biphenyl-4-ylmethyl-N′-[5-(isobutylmethylcarbamoyl)-2H-pyrazole-3-carbonyl]hydrazino}-2-hydroxypropionic acid]
Second: O=C(NN(Cc1ccc(-c2ccccc2)cc1)C[C@@H](O)C(=O)O)c1cc(C(=O)N2CCCC2)n[nH]1 [Example 2-9, (R)-3-{N-Biphenyl-4-ylmethyl-N′-[5-(pyrrolidine-1-carbonyl)-2H-pyrazole-3-carbonyl]hydrazino}-2-hydroxypropionic acid]
The Ki of the first is higher: 12.6 to 100 nM for the first, 1.26 to 10 nM for the second.

`O=C(NN(Cc1ccc(-c2ccccc2)cc1)C[C@@H](O)C(=O)O)c1cc(C(=O)N2CCC(O)C2)n[nH]1` (stereo partly drawn) [Example 2-10, (R)-3-{N-Biphenyl-4-ylmethyl-N′-[5-(3-hydroxy-pyrrolidine-1-carbonyl)-2H-pyrazole-3-carbonyl]hydrazino}-2-hydroxypropionic acid] and `O=C(NN(Cc1ccc(-c2ccccc2)cc1)C[C@@H](O)C(=O)O)c1cc(C(=O)N2CC[C@@H](O)C2)n[nH]1` [Example 2-11, (R)-3-{N-Biphenyl-4-ylmethyl-N′-[5-((R)-3-hydroxy-pyrrolidine-1-carbonyl)-2H-pyrazole-3-carbonyl]hydrazino}-2-hydroxypropionic acid] fall in the same range of Ki: 1.26 to 10 nM for the first, 1.26 to 10 nM for the second.

Compared with `O=C(NN(Cc1ccc(-c2ccccc2)cc1)C[C@@H](O)C(=O)O)c1cc(C(=O)N2CC[C@H](O)C2)n[nH]1` [Example 2-12, (R)-3-{N-Biphenyl-4-ylmethyl-N′-[5-((S)-3-hydroxy-pyrrolidine-1-carbonyl)-2H-pyrazole-3-carbonyl]hydrazino}-2-hydroxypropionic acid], `O=C(NN(Cc1ccc(-c2ccccc2)cc1)C[C@@H](O)C(=O)O)c1cc(C(=O)N2CCCCC2)n[nH]1` [Example 2-14, (R)-3-{N-Biphenyl-4-ylmethyl-N′-[5-(piperidine-1-carbonyl)-2H-pyrazole-3-carbonyl]hydrazino}-2-hydroxypropionic acid] is higher in Ki: 1.26 to 10 nM for the first, 12.6 to 100 nM for the second. The first binds more tightly here.

`O=C(NN(Cc1ccc(-c2ccccc2)cc1)C[C@@H](O)C(=O)O)c1cc(C(=O)N2CC=CC2)n[nH]1` [Example 2-13, (R)-3-{N-Biphenyl-4-ylmethyl-N′-[5-(2,5-dihydro-pyrrole-1-carbonyl)-2H-pyrazole-3-carbonyl]hydrazino}-2-hydroxypropionic acid] and `O=C(NN(Cc1ccc(-c2ccccc2)cc1)C[C@@H](O)C(=O)O)c1cc(C(=O)N2CCOCC2)n[nH]1` [Example 2-15, (R)-3-{N-Biphenyl-4-ylmethyl-N′-[5-(morpholine-4-carbonyl)-2H-pyrazole-3-carbonyl]hydrazino}-2-hydroxypropionic acid] fall in the same range of Ki: 1.26 to 10 nM for the first, 1.26 to 10 nM for the second.

`O=C(NN(Cc1ccc(-c2ccccc2)cc1)C[C@@H](O)C(=O)O)c1cc(-c2ccccc2)n[nH]1` [Example 2-16, (R)-3-[N-Biphenyl-4-ylmethyl-N′-(5-phenyl-2H-pyrazole-3-carbonyl)-hydrazino]-2-hydroxypropionic acid] and `O=C(NN(Cc1ccc(-c2ccccc2)cc1)C[C@@H](O)C(=O)O)c1cnn[nH]1` [Example 2-21, (R)-3-[N-Biphenyl-4-ylmethyl-N′-(3H-[1,2,3]triazole-4-carbonyl)hydrazino]-2-hydroxypropionic acid] fall in the same range of Ki: 12.6 to 100 nM for the first, 12.6 to 100 nM for the second.

First: O=C(NN(Cc1ccc(-c2ccccc2)cc1)C[C@@H](O)C(=O)O)c1cc(C(=O)O)n(Cc2c(F)cc(Cl)cc2F)n1 [Example 2-17, 5-[N′-Biphenyl-4-ylmethyl-N′-((R)-2-carboxy-2-hydroxyethyl)-hydrazinocarbonyl]-2-(4-chloro-2,6-difluorobenzyl)-2H-pyrazole-3-carboxylic acid]
Second: COc1c(F)c(F)c(Cn2nc(C(=O)NN(Cc3ccc(-c4ccccc4)cc3)C[C@@H](O)C(=O)O)cc2C(=O)O)c(F)c1F [Example 2-18, 5-[N′-Biphenyl-4-ylmethyl-N′-((R)-2-carboxy-2-hydroxyethyl)-hydrazinocarbonyl]-2-(2,3,5,6-tetrafluoro-4-methoxybenzyl)-2H-pyrazole-3-carboxylic acid]
The Ki of the first is higher: 12.6 to 100 nM for the first, 1.26 to 10 nM for the second. The second binds more tightly here.

First: O=C(NN(Cc1ccc(-c2ccccc2)cc1)C[C@@H](O)C(=O)O)c1cc(O)no1 [Example 2-19, (R)-3-[N-Biphenyl-4-ylmethyl-N′-(3-hydroxyisoxazole-5-carbonyl)-hydrazino]-2-hydroxypropionic acid]
Second: O=C(NN(Cc1ccc(-c2cccc(Cl)c2)cc1)C[C@@H](O)C(=O)O)c1cc(O)no1 [Example 3B, (R)-3-[N-(3′-Chlorobiphenyl-4-ylmethyl)-N′-(3-hydroxyisoxazole-5-carbonyl)-hydrazino]-2-hydroxypropionic Acid]
The Ki of the first is higher: 1.26 to 10 nM for the first, at most 1 nM for the second.

`O=C(NN(Cc1ccc(-c2ccccc2)cc1)C[C@H](O)C(=O)O)c1nnc[nH]1` [Example 2-20, (S)-3-[N-Biphenyl-4-ylmethyl-N′-(4H-[1,2,4]triazole-3-carbonyl)hydrazino]-2-hydroxypropionic acid] and `O=C(NN(Cc1ccc(-c2ccccc2)cc1)C[C@H](O)C(=O)O)c1cnc2[nH]nnc2c1` [Example 2-22, (S)-3-[N-Biphenyl-4-ylmethyl-N′-(3H-[1,2,3]triazolo[4,5-b]pyridine-6-carbonyl)hydrazino]-2-hydroxypropionic acid] fall in the same range of Ki: 126 to 1000 nM for the first, 126 to 1000 nM for the second.

`O=C(NN(Cc1ccc(-c2ccccc2)cc1)C[C@@H](O)C(=O)O)c1cc(F)c2[nH]nnc2c1` [Example 2-23, (R)-3-[N-Biphenyl-4-ylmethyl-N′-(7-fluoro-1H-benzotriazole-5-carbonyl)-hydrazino]-2-hydroxypropionic acid] and `O=C(NN(Cc1ccc(-c2ccccc2)cc1)C[C@H](O)C(=O)O)c1cc(F)c2[nH]nnc2c1` [Example 2-24, (S)-3-[N-Biphenyl-4-ylmethyl-N′-(7-fluoro-1H-benzotriazole-5-carbonyl)-hydrazino]-2-hydroxypropionic acid] fall in the same range of Ki: 126 to 1000 nM for the first, 126 to 1000 nM for the second.

With `O=C(NN(Cc1ccc(-c2ccccc2)cc1)C[C@H](O)C(=O)O)c1cc(Cl)c2[nH]nnc2c1` [Example 2-25, (S)-3-[N-Biphenyl-4-ylmethyl-N′-(7-chloro-1H-benzotriazole-5-carbonyl)-hydrazino]-2-hydroxypropionic acid] the Ki was 126 to 1000 nM.
